From patent US20260231941A1, “HERBICIDAL COMPOSITIONS” (SYNGENTA CROP PROTECTION AG, priority 2023, published 2026)

Experiments:
Experiment in all cases: Post-emergence efficacy, glasshouse, percentage damage to plant
Type in all cases: in vivo
[1] = test system: Chenopodium album (CHEAL); settings: 14 days, Table B6
From the text: (§1) Seeds of a variety of test species are sown in standard soil in pots (Digitaria sanguinalis (DIGSA), Echinochloa crus-galli (ECHCG), Setaria faberi (SETFA), Stellaria media (STEME), Amaranthus retroflexus (AMARE), Chenopodium album (CHEAL), Abutilon theophrasti (ABUTH), Ipomoea hederacea (IPOHE), Phalaris minor (PHAMI), Eleusine indica (ELEIN), Sorghum bicolor (SORVU), Euphorbia heterophylla (EPHHL), Fallopia convolvulus (POLCO)), and cultivated under controlled conditions in a glasshouse (at 24/16° C., day/night; 14 hours light; 65% humidity), the plants are sprayed with an aqueous spray solution derived from the dissolution of Component (A) in acetone and IF50 (11.12% Emulsogen EL360 TM+44.44% N-methylpyrrolidone+44.44% Dowanol DPM glycol ether) and Component (B) which was then diluted to the required concentration using 0.2% Genapol XO80 (CAS No. 9043-30-5) in water as the diluent. Test compounds or compositions are applied at the rates stated. The test plants are then grown in a glasshouse under controlled conditions in a glasshouse (at […], day/night; 14 hours light; 65% humidity) and watered twice daily. After 14 days, the test is evaluated for the percentage damage caused to the plant (100=total damage to plant; 0=no damage to plant), and the result are shown below in table B1 to B18.

[2] = test system: Digitaria sanguinalis (DIGSA); settings: 14 days, Table B1
From the text: as §1

Eleusine indica (ELEIN) = settings: 14 days, Table B17
From the text: as §1

Sorghum bicolor (SORVU) = settings: 14 days, Table B10
From the text: as §1

[3] = test system: Euphorbia heterophylla (EPHHL); settings: 14 days, Table B11
From the text: as §1

[4] = test system: Echinochloa crus-galli (ECHCG); settings: growth stage 4 true leaves, 14 days
From the text: as §1

[5] = test system: Abutilon theophrasti (ABUTH); settings: 14 days, Table B7
From the text: as §1

[6] = test system: Amaranthus retroflexus (AMARE); settings: 14 days
From the text: as §1

Setaria faberi (SETFA) = settings: 14 days, Table B3
From the text: as §1

[7] = test system: Fallopia convolvulus (POLCO); settings: 14 days
From the text: as §1

Stellaria media (STEME) = settings: 14 days
From the text: as §1

Phalaris minor (PHAMI) = settings: 14 days, Table B9
From the text: as §1

[8] = test system: Ipomoea hederacea (IPOHE); settings: 14 days
From the text: as §1

[9] = Compound (Ia) 0.9375 g/Ha alone
[10] = Compound (Ia) 0.46875 g/Ha alone

In the case of `CCOC(=O)C1(C)CC(c2cc(-n3c(=O)cc(C(F)(F)F)n(C)c3=O)c(F)cc2Cl)=NO1` (stereo not drawn) [Compound (Ia)], the “Observed Activity” value ([1]; Compound (Ia) 1.875 g/Ha alone) is reported as 77.5%, the “Observed Activity” value [2, 9] is reported as 23.8% and the “Observed Activity” value (Eleusine indica (ELEIN); [10]) is reported as 37.5%. The “Observed Activity” value (Eleusine indica (ELEIN); Compound (Ia) 7.5 g/Ha alone) was 89.8%, the “Observed Activity” value (Sorghum bicolor (SORVU); Compound (Ia) 7.5 g/Ha alone) was 72.3% and the “Observed Activity” value [3, 9] was 33.3%. For the same molecule, the “Observed Activity” value ([3]; Compound (Ia) 1.875 g/Ha alone) was 45.3%, the “Observed Activity” value ([4]; Compound (Ia) 3.75 g/Ha alone, Table B2) was 52.5% and the “Observed Activity” value ([4]; Compound (Ia) 3.75 g/Ha alone, Table B13) was 31.3%. For the same molecule, the “Observed Activity” value ([4]; Compound (Ia) 7.5 g/Ha alone, Table B2) was 68.8%, the “Observed Activity” value ([4]; Compound (Ia) 7.5 g/Ha alone, Table B13) was 47.5% and the “Observed Activity” value [5, 10] was 25.0%. For the same molecule, the “Observed Activity” value [5, 9] was 67.5%, the “Observed Activity” value ([5]; Compound (Ia) 1.875 g/Ha alone) was 88.8% and the “Observed Activity” value ([6]; Compound (Ia) 0.9375 g/Ha alone, Table B5) was 51.3%. For the same molecule, the “Observed Activity” value ([6]; Compound (Ia) 0.9375 g/Ha alone, Table B15) was 51.3%, the “Observed Activity” value ([6]; Compound (Ia) 1.875 g/Ha alone, Table B5) was 73.8% and the “Observed Activity” value (Setaria faberi (SETFA); Compound (Ia) 3.75 g/Ha alone) was 73.8%. For the same molecule, the “Observed Activity” value ([7]; Compound (Ia) 0.9375 g/Ha alone, Table B18) was 82.0%, the “Observed Activity” value ([7]; Compound (Ia) 1.875 g/Ha alone, Table B12) was 79.8% and the “Observed Activity” value ([7]; Compound (Ia) 1.875 g/Ha alone, Table B18) was 79.8%. For the same molecule, the “Observed Activity” value (Stellaria media (STEME); Compound (Ia) 0.9375 g/Ha alone, Table B4) was 27.5%, the “Observed Activity” value (Stellaria media (STEME); Compound (Ia) 1.875 g/Ha alone, Table B4) was 43.8% and the “Observed Activity” value (Stellaria media (STEME); Compound (Ia) 7.5 g/Ha alone, Table B14) was 67.5%. For the same molecule, the “Observed Activity” value (Phalaris minor (PHAMI); [10]) was 7.5%, the “Observed Activity” value (Phalaris minor (PHAMI); [9]) was 11.3% and the “Observed Activity” value (Phalaris minor (PHAMI); Compound (Ia) 1.875 g/Ha alone) was 25.8%. For the same molecule, the “Observed Activity” value (Phalaris minor (PHAMI); Compound (Ia) 3.75 g/Ha alone) was 57.0%, the “Observed Activity” value (Phalaris minor (PHAMI); Compound (Ia) 7.5 g/Ha alone) was 72.8% and the “Observed Activity” value ([8]; Compound (Ia) 0.46875 g/Ha alone, Table B8) was 53.8%. For the same molecule, the “Observed Activity” value ([8]; Compound (Ia) 0.46875 g/Ha alone, Table B16) was 53.8%, the “Observed Activity” value ([8]; Compound (Ia) 1.875 g/Ha alone, Table B8) was 83.8% and the “Observed Activity” value ([8]; Compound (Ia) 1.875 g/Ha alone, Table B16) was 83.8%.
For `CP(=O)(O)CCC(N)C(=O)O` (stereo not drawn) [Glufosinate, glufosinate], the “Observed Activity” value ([1]; Glufosinate 15 g/Ha alone) was 0.0%, the “Observed Activity” value ([2]; Glufosinate 7.5 g/Ha alone) was 5.0% and the “Observed Activity” value (Sorghum bicolor (SORVU); Glufosinate 30 g/Ha alone) was 24.0%. For the same molecule, the “Observed Activity” value ([3]; Glufosinate 3.75 g/Ha alone) was 12.5%, the “Observed Activity” value ([3]; Glufosinate 7.5 g/Ha alone) was 12.5% and the “Observed Activity” value ([4]; Glufosinate 30 g/Ha alone, Table B2) was 47.5%. The “Observed Activity” value ([4]; Glufosinate 60 g/Ha alone, Table B2) was 67.5%, the “Observed Activity” value ([4]; Glufosinate 120 g/Ha alone, Table B2) was 91.5% and the “Observed Activity” value ([5]; Glufosinate 7.5 g/Ha alone) was 7.5%. For the same molecule, the “Observed Activity” value ([5]; Glufosinate 15 g/Ha alone) was 10.0%, the “Observed Activity” value ([6]; Glufosinate 7.5 g/Ha alone, Table B5) was 0.0% and the “Observed Activity” value ([6]; Glufosinate 15 g/Ha alone, Table B5) was 0.0%. For the same molecule, the “Observed Activity” value ([6]; Glufosinate 30 g/Ha alone, Table B5) was 2.5%, the “Observed Activity” value (Setaria faberi (SETFA); Glufosinate 30 g/Ha alone) was 15.0% and the “Observed Activity” value ([7]; Glufosinate 7.5 g/Ha alone, Table B12) was 7.5%. The “Observed Activity” value (Stellaria media (STEME); Glufosinate 7.5 g/Ha alone, Table B4) was 0.0%, the “Observed Activity” value (Stellaria media (STEME); Glufosinate 30 g/Ha alone, Table B4) was 2.5% and the “Observed Activity” value (Phalaris minor (PHAMI); Glufosinate 1.875 g/Ha alone) was 2.5%. The “Observed Activity” value (Phalaris minor (PHAMI); Glufosinate 3.75 g/Ha alone) was 5.0%, the “Observed Activity” value (Phalaris minor (PHAMI); Glufosinate 7.5 g/Ha alone) was 12.5% and the “Observed Activity” value (Phalaris minor (PHAMI); Glufosinate 15 g/Ha alone) was 7.5%. For the same molecule, the “Observed Activity” value (Phalaris minor (PHAMI); Glufosinate 30 g/Ha alone) was 12.5%, the “Observed Activity” value ([8]; Glufosinate 7.5 g/Ha alone, Table B8) was 2.5% and the “Observed Activity” value ([8]; Glufosinate 30 g/Ha alone, Table B8) was 7.5%.
For `CP(=O)(O)CC[C@H](N)C(=O)O` [L-Glufosinate, L-glufosinate], the “Observed Activity” value (Eleusine indica (ELEIN); L-Glufosinate 1.875 g/Ha alone) was 0.0%, the “Observed Activity” value (Eleusine indica (ELEIN); L-Glufosinate 30 g/Ha alone) was 20.0% and the “Observed Activity” value ([4]; L-Glufosinate 30 g/Ha alone, Table B13) was 5.0%. The “Observed Activity” value ([4]; L-Glufosinate 60 g/Ha alone, Table B13) was 22.5%, the “Observed Activity” value ([4]; L-Glufosinate 120 g/Ha alone, Table B13) was 32.5% and the “Observed Activity” value ([6]; L-Glufosinate 7.5 g/Ha alone, Table B15) was 5.0%. For the same molecule, the “Observed Activity” value ([6]; L-Glufosinate 15 g/Ha alone, Table B15) was 7.5%, the “Observed Activity” value ([7]; L-Glufosinate 3.75 g/Ha alone, Table B18) was 10.0% and the “Observed Activity” value ([7]; L-Glufosinate 7.5 g/Ha alone, Table B18) was 25.0%. The “Observed Activity” value (Stellaria media (STEME); L-Glufosinate 120 g/Ha alone, Table B14) was 32.5%, the “Observed Activity” value ([8]; L-Glufosinate 7.5 g/Ha alone, Table B16) was 5.0% and the “Observed Activity” value ([8]; L-Glufosinate 15 g/Ha alone, Table B16) was 15.0%.
